Assay results reported in paper PMC11940309, “Endocrine-Disrupting Activities of Flavones on Steroid Receptors: Structural Requirements and Synthesis of Novel Flavone with Improved Estrogenic Activity” (Biomedicines, 2025).

Legend:
[1] = molecular target: T1, human AR (Homo sapiens, UniProt P10275); experiment: AR-mediated induction of PSA-luciferase reporter by R1881 in HeLa13 cells; type: cell-based; conditions: R1881 1.0 nM, read-out: % Inhibition of AR-Mediated Gene Induction
T1 construct: expressed in transfected cells; host or cells: HeLa13 (HeLa 13)
T1 sequence (P10275 1-920): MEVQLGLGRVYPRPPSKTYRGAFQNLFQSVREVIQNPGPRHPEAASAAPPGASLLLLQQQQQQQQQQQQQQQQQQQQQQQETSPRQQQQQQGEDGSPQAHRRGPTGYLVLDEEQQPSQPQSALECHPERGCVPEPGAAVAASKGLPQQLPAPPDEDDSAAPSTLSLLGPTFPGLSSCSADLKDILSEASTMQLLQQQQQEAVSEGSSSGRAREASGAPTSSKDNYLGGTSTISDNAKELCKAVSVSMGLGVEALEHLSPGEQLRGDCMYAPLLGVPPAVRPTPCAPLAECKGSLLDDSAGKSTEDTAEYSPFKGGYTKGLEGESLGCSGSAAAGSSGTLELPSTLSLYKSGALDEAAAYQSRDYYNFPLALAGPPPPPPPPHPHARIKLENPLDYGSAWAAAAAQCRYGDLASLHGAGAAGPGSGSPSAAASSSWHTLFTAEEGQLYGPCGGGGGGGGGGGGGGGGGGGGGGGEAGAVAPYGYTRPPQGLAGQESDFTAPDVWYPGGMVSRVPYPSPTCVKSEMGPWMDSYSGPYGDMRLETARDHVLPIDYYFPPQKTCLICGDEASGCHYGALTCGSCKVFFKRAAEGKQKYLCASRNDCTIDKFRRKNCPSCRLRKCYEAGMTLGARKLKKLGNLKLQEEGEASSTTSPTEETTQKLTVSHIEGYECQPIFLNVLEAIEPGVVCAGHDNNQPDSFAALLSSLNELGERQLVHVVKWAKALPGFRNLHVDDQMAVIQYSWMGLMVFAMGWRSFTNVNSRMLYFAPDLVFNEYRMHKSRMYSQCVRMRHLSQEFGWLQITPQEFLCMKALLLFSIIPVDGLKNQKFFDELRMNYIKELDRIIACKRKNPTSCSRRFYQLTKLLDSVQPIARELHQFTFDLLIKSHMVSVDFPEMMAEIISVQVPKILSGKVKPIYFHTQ
Text: (§1) The engineered T47D breast cancer cell lines employed for the assessment of flavonoid activity on glucocorticoid receptor (GR) and progesterone receptor (PR) signaling permitted the facile quantitation transcription of both an endogenous gene and a stably integrated reporter gene. […] The T47D K5pLuc cell line responds to progestins via induction of a stably integrated cytokeratin 5-luciferase reporter gene. […] For assessment of the effect of the test compounds on androgen receptor (AR) signaling, we used the HeLa13 cell line engineered to stably express human AR and a PSA-luciferase reporter gene containing a 4× multimerized PSA upstream enhancer ARE1 linked to the E4 TATA box and luciferase gene.
Experiments testing the effect of flavonoid on androgen receptor-mediated transcription employed HeLa 13 cells maintained in MEM medium supplemented with 10% FBS, 0.5 mg/mL G418, 0.05 mg/mL Hygromycin B, […], and streptomycin (100 μg/mL). For reporter gene experiments, cells were replated at a 1:5 dilution in MEM medium with 5% charcoal-stripped FBS and the antibiotics mentioned above. The medium was changed the next day. After 48 h, the cells were washed with PBSE, detached with phenol red-free trypsin, pelleted, resuspended and plated in 96 well plates as above. Hormone and flavonoid treatments were performed as described above with the HeLa 13 medium and charcoal-stripped FBS. When treated with hormone, the synthetic androgen, R1881, was used at 1.0 nM. Hormone treatment was for 20 h at which time cells were harvested for assay of luciferase.
(§2) For all cell lines, cell harvesting and the luminescence assay for alkaline phosphatase and/or luciferase were performed as previously described in detail. Each condition was performed in quadruplicate. […] Percent inhibition is 100 minus the percent induction.

[2] = system: estrogen receptor (ER); experiment: ER-mediated luciferase reporter induction in T47D KBluc cells; type: cell-based, human; conditions: for % ER Induction: relative to 1nM estradiol
Experimental: Experiments testing the effect of flavonoids on estrogen receptor-mediated transcription employed T47D KBluc cells. These cells were maintained in RPMI medium with 10% FBS, penicillin (100 U/mL), and streptomycin (100 μg/mL). For reporter gene experiments, cells were detached as above and replated at 50% confluency in phenol red-free RPMI media with 10% charcoal-stripped FBS and antibiotics (day one). All subsequent steps used phenol red-free medium and trypsin. On day three, the medium was replaced with fresh medium. On day five, cells were washed with PBSE, detached, resuspended, diluted, and replated in the phenol red-free RPMI with charcoal-stripped serum (50,000 cells per well as above).
as §2

[3] = system: estrogen receptor (ER); design: method as in PMID 11925457; conditions: previous report; cited from earlier work
[4] = molecular target: T2, progesterone receptor (PR) (Homo sapiens, UniProt P06401); experiment: PR-mediated induction of transcription by R5020 in T47D K5pLuc cells (luciferase reporter and endogenous alkaline phosphatase); type: cell-based; conditions: T47D, 8 µM, R5020 1.0 nM
T2 sequence (P06401 679-933 limits assumed): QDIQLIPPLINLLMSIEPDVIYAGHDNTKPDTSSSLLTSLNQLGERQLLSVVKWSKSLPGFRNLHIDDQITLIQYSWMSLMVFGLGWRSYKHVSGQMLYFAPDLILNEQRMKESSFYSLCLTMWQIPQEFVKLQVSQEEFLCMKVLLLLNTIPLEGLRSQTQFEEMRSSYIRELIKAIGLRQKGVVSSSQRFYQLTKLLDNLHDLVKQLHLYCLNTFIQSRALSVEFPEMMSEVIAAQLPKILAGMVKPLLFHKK
Text: as §1
Experiments testing the effect of flavonoids on progesterone receptor-mediated transcription employed T47D K5pluc cells. The protocol was the same as that for T47D (A1-2) cells except the medium was Dulbecco’s Modified Eagle’s Medium supplemented with 10% FBS, insulin (10 nM), puromycin 200 ng/mL, nonessential amino acids, penicillin (100 U/mL), and streptomycin (100 μg/mL). When treated with hormone, the synthetic progestin, R5020, was used at 1.0 nM. Hormone treatment was for 20 h at which time cells were harvested for assay of alkaline phosphatase and luciferase.
as §2

Row | inhibition at 1 µM [1] | inhibition at 4 µM [1] | EC50 lower than that of 6,4′-dihydroxyflavone ([2]; comparison at lower concentrations) | inhibition at 8 µM ([4]; AP (alkaline phosphatase)) | inhibition at 8 µM ([4]; LUC (luciferase)) | Structure (SMILES) | % ER Induction ([2]; 1 µM) | % ER Induction ([2]; 4 µM) | affinity for ER greater than that of 6,4′-dihydroxyflavone [3]
1 | 53% | 71% | 2–3 fold |  |  | O=c1c(O)c(-c2ccc(O)cc2)oc2ccc(O)cc12 [3,6,4′-trihydroxyflavone] | 102% | 108% | 3 fold
2 | 27% | 49% |  |  |  | COc1ccc2oc(-c3ccc(O)cc3)cc(=O)c2c1 [6-methoxy,4′-hydroxyflavone] | 129% | 167% | 
3 |  | 22% |  | 42% | -88% | Oc1ccc(C2COc3cc(O)ccc3C2)cc1 (stereo not drawn) [7,4′-dihydroxyisoflavan] | 96% | 84% | 
